Data taken from article PMC9338942, “(+)-Usnic acid and its salts, inhibitors of SARS‐CoV‐2, identified by using in silico methods and in vitro assay” (Scientific Reports, 2022).
Read-outs that look alike come from different tables or passages of the source.

Tests used:
[1] = tested on: SARS-CoV-2; conditions: read-out: IC50, in vitro antiviral efficacy against SARS-CoV-2; cited from earlier work
[2] = tested on: vero cells; conditions: for Cell number to mock (%): single concentration 10 μM; for CC50: vero cells
[3] = tested on: SARS-CoV-2 (βCoV/Korea/KCDC/2020); test: microbe, parasite or virus in culture; type: cell-based; conditions: for inhibition at 10 µM: single concentration 10 μM, read-out: Inhibition of infection (%); for IC50: vero cells, immunofluorescence
[4] = in vitro; conditions: African green monkey
[5] = tested on: COVID-19; parameters: method as in PMID 34480861; conditions: phase 3 clinical trial; cited from earlier work
[6] = tested on: SARS-CoV-2 pseudovirions; conditions: at 30 μM; cited from earlier work
[7] = tested on: COVID-19; parameters: method as in PMID 33903855; conditions: cited from earlier work
[8] = tested on: SARS-CoV; conditions: mice, 30 mg/kg; cited from earlier work
[9] = Severe acute respiratory syndrome coronavirus 2
[10] = CC50, vero cells, assay with Alpha var (B.1.1.7)
[11] = CC50, vero cells, assay with Beta var (B.1.351)
[12] = CC50, vero cells, assay with Delta var (B.1.617.2)
[13] = CC50, vero cells, assay with original SARS-CoV-2 strain
[14] = Severe acute respiratory syndrome coronavirus 2, original SARS-CoV-2 strain
[15] = assay with original SARS-CoV-2 strain
[16] = assay with Delta var (B.1.617.2)

Compound: Cc1ccc(N)cc1C(=O)N[C@H](C)c1cccc2ccccc12 [GRL0617]
- IC50 [1]: 2.1 µM

Compound: COC1=CC(=O)[C@@]2(C)c3c(O)c(C)c(O)c(C(C)=O)c3O[C@@]2(OC)C1 [Mycousfuran A, (4aS,9bR)-6-acetyl-7,9-dihydroxy-3,4a-dimethoxy-8,9b-dimethyl-4H-dibenzofuran-1-one]
- Cell number to mock (%) [2]: 109.23%
- inhibition at 10 µM [3, 9]: 0.96%

Compound: Cc1cccc(C)c1OCC(=O)N[C@@H](Cc1ccccc1)[C@@H](O)C[C@H](Cc1ccccc1)NC(=O)[C@H](C(C)C)N1CCCNC1=O [lopinavir]
- CC50 [4, 10]: > 50 µM
- CC50 [4, 11]: > 50 µM
- CC50 [4, 12]: > 50 µM
- CC50 [4, 13]: > 150 µM
- SI (selectivity index) [3]: 4.24
- IC50 [3, 14]: 11.8 µM

Compound: CCS(=O)(=O)N1CC(CC#N)(n2cc(-c3ncnc4[nH]ccc34)cn2)C1 [barcitinib, Barcitinib]
- reduction of 28-day mortality rate compared to placebo [5]: 38.2%

Compound: CC(=O)C1=C(O)[C@]2(C)C(=CC1=O)Oc1c(C(C)=O)c(O)c(C)c(O)c12 [KU, potassium usnate]
- CC50 [2, 15]: > 50 µM
- IC50 ([3]; original SARS-CoV-2 strain): 7.57 µM

Compound: CCOC(=O)[C@H]1O[C@@H]1C(=O)N[C@@H](CC(C)C)C(=O)NCCC(C)C [Aloxistatin]
- reduction of cell entry of SARS-CoV-2 pseudovirions [6]: 92.5%

Compound: CCC(CC)COC(=O)[C@H](C)N[P@](=O)(OC[C@H]1O[C@@](C#N)(c2ccc3c(N)ncnn23)[C@H](O)[C@@H]1O)Oc1ccccc1 [remdesivir]
- CC50 [4]: > 50 µM
- CC50 ([2]; assay with Beta var (B.1.351)): > 50 µM
- CC50 [2, 16]: > 50 µM
- IC50 [3, 14]: 7.42 µM
- SI (selectivity index) ([3]; original SARS-CoV-2 strain): 6.74

Compound: CCN(CC)CCCC(C)Nc1ccnc2cc(Cl)ccc12 (centres unmarked) [chloroquine]
- CC50 [4]: > 150 µM
- CC50 ([2]; assay with Beta var (B.1.351)): > 150 µM
- CC50 [2, 16]: > 150 µM
- IC50 [3, 14]: 11.5 µM

Compound: CN(C)C(=O)COC(=O)Cc1ccc(OC(=O)c2ccc(NC(=N)N)cc2)cc1 [camostat mesilate]
- efficacy in clinical trials for the treatment of COVID-19 [7]: did not show any particular efficacy
- survival level [8]: above 60%

Compound: C[C@]12C[C@@]34C=CC(=O)[C@@](C)(CCC(=O)Nc5c(O)ccc(C(=O)O)c5O)[C@@H]3[C@H](C[C@@H]1C4)O2 [Platensimycin, 3-[[3-[(1S,3S,4S,5aS,9S,9aR)-1,4,5,8,9,9a-Hexahydro-3,9-dimethyl-8-oxo-3H-1,4:3,5a-dimethano-2-benzoxepin-9-yl]-1-oxopropyl]amino]-2,4-dihydroxybenzoic acid]
- Cell number to mock (%) [2]: 109.23%
- inhibition at 10 µM [3, 9]: 3.16%

Compound: CO[C@H]1[C@H](O)[C@@H](O)[C@H](n2c3c(Cl)cccc3c3c4c(c5c6cccc(Cl)c6[nH]c5c32)C(=O)NC4=O)O[C@@H]1CO [Rebeccamycin, 1,11-Dichloro-12,13-dihydro-12-(4-O-methyl-β-D-glucopyranosyl)-5H-indolo[2,3-a]pyrrolo[3,4-c]carbazole-5,7(6H)-dione]
- Cell number to mock (%) [2]: 72.32%
- inhibition at 10 µM [3, 9]: 10.6%

Compound: CC(=O)C1=C(O)C=C2Oc3c(C(C)=O)c(O)c(C)c(O)c3[C@]2(C)C1=O [NaU, sodium usnate]
- CC50 [2, 15]: > 50 µM
- IC50 ([3]; original SARS-CoV-2 strain): 5.33 µM

Compound: CC(=O)c1c(O)c(C)c(O)c2c1OC1=CC(=O)C(C(C)=O)C(=O)[C@@]12C (single isomer, unassigned; (+)) [(+)-usnic acid]
- CC50 [4, 10]: 34.8 µM
- CC50 [4, 11]: 32.4 µM
- CC50 [4, 12]: > 50 µM
- CC50 [4, 13]: > 50 µM
- Cell number to mock (%) [2]: 94.69%
- SI (selectivity index) [3]: 6.26
- IC50 [3, 14]: 7.99 µM
- inhibition at 10 µM [3, 9]: 61.6%
